# Assay results published in patent US20210079015A1, “NOVEL DIHYDROISOXAZOLE COMPOUNDS AND THEIR USE FOR THE TREATMENT OF HEPATITIS B” (Novartis AG, priority 2017, published 2021).
# Test system: HBV
# Assay: Anti-HBV assay (inhibition of HBV replication in HepG2.cl42 cells, HBV DNA by qPCR)
# Assay type: cell-based, HBV ayw strain
# Conditions: Hepatitis B virus, 96 h, treated four days, HBV DNA quantified by real time PCR, read-out: HBsAg EC50
row,SMILES,EC50 [nM]
1,"C[C@H]1Cc2noc(N3CCCS3(=O)=O)c2CN1C(=O)Nc1cc(F)c(F)c(F)c1 [Compound 58, (S)-3-(1,1-dioxidoisothiazolidin-2-yl)-6-methyl-N-(3,4,5-trifluorophenyl)-6,7-dihydroisoxazolo[4,3-c]pyridine-5(4H)-carboxamide]",< 100
2,Cc1ccccc1-c1onc2c1CN(C(=O)Nc1cc(F)c(F)c(F)c1)[C@@H](C)C2 [Compound 17],100 to 1000
3,COc1cccc(-c2onc3c2CN(C(=O)Nc2cc(F)c(F)c(F)c2)[C@@H](C)C3)c1 [Compound 20],100 to 1000
4,Cc1nc(-c2onc3c2[C@H](C)N(C(=O)Nc2cc(F)c(F)c(F)c2)CC3)c(C)o1 [Compound 40],≥ 1000
5,"C[C@H]1Cc2noc(N3CCCOC3=O)c2CN1C(=O)Nc1cc(F)c(F)c(F)c1 [Compound 48, (S)-6-methyl-3-(2-oxo-1,3-oxazinan-3-yl)-N-(3,4,5-trifluorophenyl)-6,7-dihydroisoxazolo[4,3-c]pyridine-5(4H)-carboxamide]",< 100
6,"CC1CCN(c2onc3c2CN(C(=O)Nc2cc(F)c(F)c(F)c2)[C@@H](C)C3)C1=O (stereo partly drawn) [Compound 56, (6S)-6-methyl-3-(3-methyl-2-oxopyrrolidin-1-yl)-N-(3,4,5-trifluorophenyl)-6,7-dihydroisoxazolo[4,3-c]pyridine-5(4H)-carboxamide]",< 100
7,"C[C@H]1Cc2noc(N3CCCOC3=O)c2CN1C(=O)Nc1ccc(F)c(C(F)F)c1 [Compound 50, (S)—N-(3-(difluoromethyl)-4-fluorophenyl)-6-methyl-3-(2-oxo-1,3-oxazinan-3-yl)-6,7-dihydroisoxazolo[4,3-c]pyridine-5(4H)-carboxamide]",< 100
8,"C[C@H]1Cc2noc(-c3ccc(F)cn3)c2CN1C(=O)Nc1cc(F)c(F)c(F)c1 [Compound 27, (S)-3-(5-fluoropyridin-2-yl)-6-methyl-N-(3,4,5-trifluorophenyl)-6,7-dihydroisoxazolo[4,3-c]pyridine-5(4H)-carboxamide]",100 to 1000
9,"O=C(Nc1cc(F)c(F)c(F)c1)N1CCc2noc(N3CCCC3=O)c2C1 [Compound 5.1, 3-(2-oxopyrrolidin-1-yl)-N-(3,4,5-trifluorophenyl)-6,7-dihydroisoxazolo[4,3-c]pyridine-5(4H)-carboxamide]",100 to 1000
10,"O=C(Nc1cc(F)c(F)c(F)c1)N1CCc2noc(-c3ccc(F)cc3F)c2C1 [Compound 1.1, 3-(2,4-difluorophenyl)-N-(3,4,5-trifluorophenyl)-6,7-dihydroisoxazolo[4,3-c]pyridine-5(4H)-carboxamide]",100 to 1000
11,Cc1nc(-c2onc3c2[C@H](C)N(C(=O)Nc2cc(F)c(F)c(F)c2)CC3)no1 [Compound 42],100 to 1000
12,C[C@H]1Cc2noc(-c3cccc(C#N)c3)c2CN1C(=O)Nc1cc(F)c(F)c(F)c1 [Compound 14],100 to 1000
13,Cc1nc(-c2onc3c2[C@H](C)N(C(=O)Nc2cc(F)c(F)c(F)c2)CC3)co1 [Compound 36],≥ 1000
14,C[C@H]1Cc2noc(-c3ccc(OC(F)F)cc3)c2CN1C(=O)Nc1cc(F)c(F)c(F)c1 [Compound 24],100 to 1000
15,Cc1ccc(-c2onc3c2CN(C(=O)Nc2cc(F)c(F)c(F)c2)[C@@H](C)C3)cc1 [Compound 11],100 to 1000
16,Cc1nc(-c2onc3c2CN(C(=O)Nc2cc(F)c(F)c(F)c2)[C@@H](C)C3)no1 [Compound 41],100 to 1000
17,"C[C@H]1Cc2noc(N3CCCOC3=O)c2CN1C(=O)Nc1cc(F)c(F)c(C(F)F)c1 [Compound 51, (S)—N-(3-(difluoromethyl)-4,5-difluorophenyl)-6-methyl-3-(2-oxo-1,3-oxazinan-3-yl)-6,7-dihydroisoxazolo[4,3-c]pyridine-5(4H)-carboxamide]",< 100

row,SMILES,EC50 [nM]
1,"C[C@@H]1Cc2noc(-c3ccc(F)cc3F)c2CN1C(=O)Nc1cc(F)c(F)c(F)c1 [Compound 3.1-II, (R)-3-(2,4-difluorophenyl)-6-methyl-N-(3,4,5-trifluorophenyl)-6,7-dihydroisoxazolo[4,3-c]pyridine-5(4H)-carboxamide]",100 to 1000
2,"C[C@H]1Cc2noc(N3CCCCC3=O)c2CN1C(=O)Nc1ccccc1 [Compound 54, (S)-6-methyl-3-(2-oxopiperidin-1-yl)-N-phenyl-6,7-dihydroisoxazolo[4,3-c]pyridine-5(4H)-carboxamide]",100 to 1000
3,C[C@H]1Cc2noc(-c3ccc(OC(F)(F)F)cc3)c2CN1C(=O)Nc1cc(F)c(F)c(F)c1 [Compound 16],100 to 1000
4,"O=C(Nc1cc(F)c(F)c(F)c1)N1CCc2noc(C3CCCCC3)c2C1 [Compound 2.1, 3-cyclohexyl-N-(3,4,5-trifluorophenyl)-6,7-dihydroisoxazolo[4,3-c]pyridine-5(4H)-carboxamide]",100 to 1000
5,C[C@H]1Cc2noc(C3CCCC3)c2CN1C(=O)Nc1cc(F)c(F)c(F)c1 [Compound 43],100 to 1000
6,"Cc1nc(-c2onc3c2[C@H](C)N(C(=O)Nc2cc(F)c(F)c(F)c2)CC3)cs1 [Compound 30, (S)-4-methyl-3-(2-methylthiazol-4-yl)-N-(3,4,5-trifluorophenyl)-6,7-dihydroisoxazolo[4,3-c]pyridine-5(4H)-carboxamide]",≥ 1000
7,C[C@H]1c2c(noc2-c2ccn(C)n2)CCN1C(=O)Nc1cc(F)c(F)c(F)c1 [Compound 34],≥ 1000
8,C[C@H]1Cc2noc(-c3cn(C)nn3)c2CN1C(=O)Nc1cc(F)c(F)c(F)c1 [Compound 37],100 to 1000
9,"C[C@H]1Cc2noc(N3CCOCC3=O)c2CN1C(=O)Nc1cc(F)c(F)c(F)c1 [Compound 49, (S)-6-methyl-3-(3-oxomorpholino)-N-(3,4,5-trifluorophenyl)-6,7-dihydroisoxazolo[4,3-c]pyridine-5(4H)-carboxamide]",< 100
10,"C[C@H]1Cc2noc(N3CCOCC3)c2CN1C(=O)Nc1cc(F)c(F)c(F)c1 [Compound 59, (S)-6-methyl-3-morpholino-N-(3,4,5-trifluorophenyl)-6,7-dihydroisoxazolo[4,3-c]pyridine-5(4H)-carboxamide]",≥ 1000
11,C[C@H]1Cc2noc(-c3ccccc3Cl)c2CN1C(=O)Nc1cc(F)c(F)c(F)c1 [Compound 12],100 to 1000
12,C[C@H]1Cc2noc(-c3ccc(Cl)cc3)c2CN1C(=O)Nc1cc(F)c(F)c(F)c1 [Compound 18],100 to 1000
13,"C[C@H]1Cc2noc(-c3ccc(F)cc3F)c2CN1C(=O)Nc1cc(F)c(F)c(F)c1 [Compound 3.1-I, (S)-3-(2,4-difluorophenyl)-6-methyl-N-(3,4,5-trifluorophenyl)-6,7-dihydroisoxazolo[4,3-c]pyridine-5(4H)-carboxamide]",< 100
14,"Cc1cc(-c2onc3c2CN(C(=O)Nc2cc(F)c(F)c(F)c2)[C@@H](C)C3)no1 [Compound 25, (S)-6-methyl-3-(5-methylisoxazol-3-yl)-N-(3,4,5-trifluorophenyl)-6,7-dihydroisoxazolo[4,3-c]pyridine-5(4H)-carboxamide]",100 to 1000
15,"COC[C@H]1CN(c2onc3c2CN(C(=O)Nc2cc(F)c(F)c(F)c2)[C@@H](C)C3)C(=O)O1 [Compound 62, (S)-3-((R)-5-(methoxymethyl)-2-oxooxazolidin-3-yl)-6-methyl-N-(3,4,5-trifluorophenyl)-6,7-dihydroisoxazolo[4,3-c]pyridine-5(4H)-carboxamide]",100 to 1000
16,C[C@H]1Cc2noc(-c3ccc(F)cc3)c2CN1C(=O)Nc1cc(F)c(F)c(F)c1 [Compound 13],100 to 1000
